# How the values were obtained:
# [1] = tested on: extracellular levels of ACh in striatum; assay: ACh release in striatum, microdialysis in freely moving rats; assay type: in vivo; conditions: for ACh content in perfusate increased up to: striatum, young rats (2 month-old Wistar)
# Description: ACh content in perfusate obtained from striatum (Bregma, A: 0.2 mm, L: 3.0 mm, H: 4.0 mm) of brain were continuously detected by means of HPLC and ECD through the microdialysis system using freely moving rats. See Messamore, E., et al, 32 Neuropharmacol. […] After an equilibration period of more than 2 hours, five fractions were allowed to obtain basal ACh content. Compounds were injected i.p., and thereafter, a microdialytic analysis was conducted for 3 hours.
# [2] = tested on: extracellular levels of ACh in hippocampus; assay: ACh release in hippocampus, microdialysis in freely moving rats; assay type: in vivo; conditions: for ACh content in perfusate increased: hippocampus
# Description: ACh content in perfusate obtained from hippocampus (Bregma, A: −5.8 mm, L: 5.0 mm, H: 4.0 mm) of brain were continuously detected by means of HPLC and ECD through the microdialysis system using freely moving rats (See Messamore and Kawashima, supra). After an equilibration period, five fractions were allowed to obtain basal ACh content. Test substances were injected i.p., and thereafter, microdialytic analysis was conducted for 3 hr.
# [3] = target: T1, peripheral 5-HT3 receptor (Rattus norvegicus, UniProt P35563); assay: 5-HT-evoked von Bezold-Jarish Effect (B.J.E.) in anesthetized rats; assay type: in vivo; conditions: Cm.A 3 to 10 mg/kg
# T1 construct: from tissue; host or cells: whole anesthetized rat (peripheral receptors)
# T1 sequence (P35563 24-483): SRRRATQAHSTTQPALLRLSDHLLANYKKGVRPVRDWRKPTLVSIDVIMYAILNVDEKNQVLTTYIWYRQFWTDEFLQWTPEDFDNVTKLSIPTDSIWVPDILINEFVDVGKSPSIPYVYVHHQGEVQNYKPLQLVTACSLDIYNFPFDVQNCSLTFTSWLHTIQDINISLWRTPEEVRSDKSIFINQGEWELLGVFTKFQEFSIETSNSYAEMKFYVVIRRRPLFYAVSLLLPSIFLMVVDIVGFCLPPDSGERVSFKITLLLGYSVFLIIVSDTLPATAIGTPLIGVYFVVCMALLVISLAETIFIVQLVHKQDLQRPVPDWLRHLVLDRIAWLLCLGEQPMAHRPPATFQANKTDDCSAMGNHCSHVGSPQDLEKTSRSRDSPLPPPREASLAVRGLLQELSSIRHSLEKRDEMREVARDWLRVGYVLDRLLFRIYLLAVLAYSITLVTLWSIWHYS
# Description: A bolus i.v. injection of serotonin (5-HT) (20 μg/kg) caused reflex bradycardia transiently (von Bezold—Jarish Effect: B.J.E.) via activation of peripheral 5-HT3 receptor in anesthetized rats.
# [4] = tested on: scopolamine-induced amnesia; assay: Passive avoidance, scopolamine-induced memory impairment; assay type: in vivo, male Wistar rats; conditions: 0.1, 0.3 and 3.0 mg/kg oral, 30 minutes before acquisition trial; scopolamine 0.5 mg/kg i.p.
# Description: Cutoff latency was set at 600 seconds.
# Rats were treated i.p. with scopolamine (0.5 mg/kg) 15 minutes before the acquisition trial.
# [5] = tested on: scopolamine-induced spatial memory deficit; assay: Eight-arm radial maze, scopolamine-induced deficit in spatial memory; assay type: in vivo, male Wistar rats; conditions: oral dose 0.03~0.3 mg/kg; scopolamine 0.5 mg/kg i.p.
# Description: (§1) Using male Wistar rats, the anti-amnestic effects of Cm.A on spatial cognition was evaluated using an eight-arm radial maze task. After repeated trials for spatial cognition, memory-established rats (which had more than 7 correct choices and less than one error) were utilized.
# [6] = tested on: SEP-lesioned rats; assay: Eight-arm radial maze, medial septal nucleus (SEP) lesion-induced deficit; assay type: in vivo, male Wistar rats; conditions: 3.0 mg/kg/day, repeated treatment for 2 weeks
# Description: as §1
# SEP (Bregma, A: 0.2 mm, L: −1.0 mm, H: −5.8 mm) was lesioned by microinjection with ibotenic acid (10 μg) similarly to that of the BF lesion of Example 4A(3).
# [7] = tested on: aged rats (22 month-old); assay: Water maze, aged rats; assay type: in vivo, male Fischer 344 rats
# Source text: As compared with young rats, aged rats (22 month-old) were unable shorten the escape latency period. Even after the 11th trial, only a partial decrease in the latency period was evident in the aged rats.
# [8] = tested on: healthy volunteers; assay: Human Phase IA single-dose, dose-escalation clinical trial; assay type: in vivo; conditions: single oral dose 2 mg to 180 mg
# Description: A Phase IA clinical trial was conducted as a single-dose, double-blind, placebo-controlled, dose-escalation study. This study investigated the safety and pharmacokinetic profile of the particularly preferred salt (depicted in FIG. 1B; N-[2-( 1-benzylpiperizin-4-yl)ethyl]-2,3-dihydro-9-methoxy-1H-pyrrolo[3,4-b]quinolin-1-one hemifumarate) of the compound of FIG. 1A, N-[2-(1-benzylpiperzin-4-yl)ethyl]-2,3-dihydro-9-methoxy-1H-pyrrolo[3,4-b] quinolin-1-one. The compound was administered orally in doses from 2 mg to 180 mg to healthy volunteers (male and female), aged 50-75 years, under fasting conditions. A total of 68 individuals were enrolled in the study and completed the trial. A maximum tolerated dose was not identified in this study, i. e., even at 180 mg, there were insufficient adverse events to establish a true “maximum tolerated dose” in this study.
# [9] = tested on: BF-lesioned rats; assay: Water maze, BF lesion-induced deficit in spatial learning; conditions: oral; Cm.A 0.3, 1.0 and 3.0 mg/kg/day, THA 1.0 mg/kg/day, E2020 0.3 and 1.0 mg/kg/day
# Description: For each training trial, the rat was placed in the water (22° C.) such that the animal faced the wall of a circular pool (150 cm in diameter, 45 cm in height), and started at one of five starting points (selected randornly). In each trial, the latency period to escape onto the hidden platform (fixed in the middle of one quadrant, 2 cm below the surface of water) was recorded. These procedures were repeated once or twice a day during the experimental period.
# [10] = tested on: BF-lesioned rats; assay: Passive avoidance, basal forebrain (BF) lesion-induced memory impairment
# Description: Using male Wistar rats, passive-avoidance studies were conducted using a step through-type, 2 compartment (light and dark) box. In the acquisition trial, at the time when the animal entered the dark area, a guillotine door was closed and an electric shock (0.5˜0.8 mA for 3 seconds) was delivered to the animal. After 24 hours, the retention trial was conducted: the rat was put in the light area and the time until the animal entered the dark area (latency) was measured. Cutoff latency was set at 600 seconds. Test substances were orally administered 30 minutes before the acquisition trial.
# After 2 weeks, the acquisition trial was conducted.
structure (smiles),measurement,setting,value
"COc1c2c(nc3ccccc13)CN(CCC1CCN(Cc3ccccc3)CC1)C2=O [Cm.A, 2-[2-(1-benzylpiperizin-4-yl)ethyl]-2,3-dihydro-9-methoxy-1H-pyrrolo[3,4-b]quinolin-1-one hemifumarate]","centrally acting cholinergic symptoms (tremor, chewing and yawning)","[1]; striatum study, young rats, i.p., data not shown",few centrally acting cholinergic symptoms
same,ACh content in perfusate increased up to,[1]; 10 mg/kg i.p.,131%
same,ACh content in perfusate increased up to,[1]; 30 mg/kg i.p.,369%
same,"centrally acting cholinergic symptoms (tremor, chewing and yawning)","[2]; hippocampus study, i.p., data not shown",Few centrally acting cholinergic symptoms
same,ACh content in perfusate increased,[2]; 10 mg/kg i.p.,164%
same,ACh content in perfusate increased,[2]; 30 mg/kg i.p.,552%
same,inhibition of 5-HT-evoked B.J.E. (reflex bradycardia),"[3]; i.v. pretreatment, E2020 0.1~1 mg/kg, 5-HT 20 μg/kg i.v.",inhibited B.J.E. dose dependently
same,"blood pressure, heart rate and other signs","[3]; i.v., THA 10 mg/kg, E2020 higher than 1 mg/kg, data not shown",without any change on blood pressure and heart rate
same,"latency in retention trial, reversal of scopolamine effect",[4],significantly reversed the effect of scopolamine
same,"deficit of spatial cognition (correct choices, errors)",[5],significantly improved the deficit of spatial cognition
same,deficit of spatial memory,[6],significantly improved the deficit of spatial memory
same,deficit of spatial learning (escape latency),[7],gradually improved the deficit of spatial learning to a level nearly equivalent to young rats
same,"safety parameters (vital signs, ECG, blood chemistry, hematology, urinalysis, physical examination)",[8],no clinically significant changes
same,serious adverse events,[8],no serious adverse events reported
same,maximum tolerated dose,"[8]; fasting, aged 50-75 years",> 180 mg
same,mild adverse events,[8]; 68 individuals enrolled,seven mild adverse events
same,deficit of spatial learning (escape latency),[9],improved the deficit of spatial learning
same,"memory deficit induced by BF-lesion, repeated doses",[10]; 0.03~0.3 mg/kg/day for 1 week,improvement in recovery as potently as or more potently than THA and E2020
same,"memory deficit induced by BF-lesion, single dose",[10]; single dose 0.03~1.0 mg/kg,"partially, but significantly, recovered the memory deficit"

# Source: patent publication US6586596B2, “Acetylcholine enhancers” (priority 1998, dated 2003)
